Target: aldosterone synthase (CYP11B2) (Macaca fascicularis, UniProt A0A2K5UPL9)
Assay: aldosterone synthase inhibition assay
Type: biochemical, cynomolgus monkey
Settings: cynomolgus adrenal gland mitochondria, 2 μM corticosterone, aldosterone quantified by mass spectrometry
Summary of the method: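 Cynomolgus adrenal mitochondria ([…]) used as CYP11B2 source with 2 μM corticosterone in 100 mM potassium phosphate pH 7.4, 1% DMSO; reaction started with 1 mM NADPH, run 60-90 min at 37° C. Aldosterone measured by mass spectrometry; IC50 from 4-parameter logistic fit, no-NADPH blank as 0%.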

Chain of aldosterone synthase (CYP11B2) (A0A2K5UPL9 1-503): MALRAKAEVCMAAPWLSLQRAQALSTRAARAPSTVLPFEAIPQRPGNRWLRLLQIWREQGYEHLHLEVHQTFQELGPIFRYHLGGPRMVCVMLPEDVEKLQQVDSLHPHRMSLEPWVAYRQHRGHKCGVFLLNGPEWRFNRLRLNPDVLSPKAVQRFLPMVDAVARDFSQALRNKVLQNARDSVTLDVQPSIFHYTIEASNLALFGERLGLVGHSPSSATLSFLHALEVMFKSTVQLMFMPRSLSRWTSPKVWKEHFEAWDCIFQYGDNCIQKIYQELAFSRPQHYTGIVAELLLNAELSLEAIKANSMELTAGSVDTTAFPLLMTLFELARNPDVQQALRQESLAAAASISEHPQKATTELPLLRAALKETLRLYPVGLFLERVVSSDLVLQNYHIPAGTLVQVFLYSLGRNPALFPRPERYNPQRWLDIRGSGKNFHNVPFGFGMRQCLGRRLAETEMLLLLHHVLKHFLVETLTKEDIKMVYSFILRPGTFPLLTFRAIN

| IC50 [nM] | Compound |
| --- | --- |
| 41.5 | NC(=O)N1CCCc2cc(-c3cncc4c3COCC4O)cnc21 (single isomer, unassigned) [Compound 164, 6-(4-Hydroxy-3,4-dihydro-1H-pyrano[4,3-c]pyridin-8-yl)-3,4-dihydro-2H-[1,8]naphthyridine-1-carboxylic acid amide] |
| 224 | Cn1ncc2ccc(-c3cncc4c3C(O)COC4)cc21 (single isomer, unassigned) [Compound 165, 5-(1-Methyl-1H-indazol-6-yl)-3,4-dihydro-1H-pyrano[3,4-c]pyridin-4-ol] |
| 36.5 | Cn1ncc2ccc(-c3cncc4c3C(O)COC4)cc21 (single isomer, unassigned) [Compound 166, 5-(1-Methyl-1H-indazol-6-yl)-3,4-dihydro-1H-pyrano[3,4-c]pyridin-4-ol] |
| 156 | OC1COCc2cncc(-c3ccc4cnccc4c3)c21 (single isomer, unassigned) [Compound 167, 5-Isoquinolin-6-yl-3,4-dihydro-1H-pyrano[3,4-c]pyridin-4-ol] |
| 40.5 | OC1COCc2cncc(-c3ccc4cnccc4c3)c21 (single isomer, unassigned) [Compound 168, 5-Isoquinolin-6-yl-3,4-dihydro-1H-pyrano[3,4-c]pyridin-4-ol] |
| 13.9 | Cn1ncc2ccc(-c3cncc4c3COCC4(C)O)cc21 (single isomer, unassigned) [Compound 169, 4-Methyl-8-(1-methyl-1H-indazol-6-yl)-3,4-dihydro-1H-pyrano[4,3-c]pyridin-4-ol] |
| 7.8 | Cn1ncc2ccc(-c3cncc4c3COCC4(C)O)cc21 (single isomer, unassigned) [Compound 170, 4-Methyl-8-(1-methyl-1H-indazol-6-yl)-3,4-dihydro-1H-pyrano[4,3-c]pyridin-4-ol] |
| 19.1 | Cn1nc(F)c2ccc(-c3cncc4c3COCC4(C)O)cc21 (single isomer, unassigned) [Compound 171, 8-(3-Fluoro-1-methyl-1H-indazol-6-yl)-4-methyl-3,4-dihydro-1H-pyrano[4,3-c]pyridin-4-ol] |
| 10.2 | Cn1nc(F)c2ccc(-c3cncc4c3COCC4(C)O)cc21 (single isomer, unassigned) [Compound 172, 8-(3-Fluoro-1-methyl-1H-indazol-6-yl)-4-methyl-3,4-dihydro-1H-pyrano[4,3-c]pyridin-4-ol] |
| 340 | Cn1ncc2c(C#N)cc(-c3cncc4c3COCC4(C)O)cc21 (single isomer, unassigned) [Compound 173, 6-(4-Hydroxy-4-methyl-3,4-dihydro-1H-pyrano[4,3-c]pyridin-8-yl)-1-methyl-1H-indazole-4-carbonitrile] |
| 4400 | Cn1ncc2c(C#N)cc(-c3cncc4c3COCC4(C)O)cc21 (single isomer, unassigned) [Compound 174, 6-(4-Hydroxy-4-methyl-3,4-dihydro-1H-pyrano[4,3-c]pyridin-8-yl)-1-methyl-1H-indazole-4-carbonitrile] |
| 21.6 | Cn1ncc2c(F)cc(-c3cncc4c3COCC4(C)O)cc21 (single isomer, unassigned) [Compound 175, 8-(4-Fluoro-1-methyl-1H-indazol-6-yl)-4-methyl-3,4-dihydro-1H-pyrano[4,3-c]pyridin-4-ol] |
| 13.4 | Cn1ncc2c(F)cc(-c3cncc4c3COCC4(C)O)cc21 (single isomer, unassigned) [Compound 176, 8-(4-Fluoro-1-methyl-1H-indazol-6-yl)-4-methyl-3,4-dihydro-1H-pyrano[4,3-c]pyridin-4-ol] |
| 42.8 | Cn1nc(C#N)c2ccc(-c3cncc4c3COCC4(C)O)cc21 (single isomer, unassigned) [Compound 177, 6-(4-Hydroxy-4-methyl-3,4-dihydro-1H-pyrano[4,3-c]pyridin-8-yl)-1-methyl-1H-indazole-3-carbonitrile] |
| 15 | Cn1nc(C#N)c2ccc(-c3cncc4c3COCC4(C)O)cc21 (single isomer, unassigned) [Compound 178, 6-(4-Hydroxy-4-methyl-3,4-dihydro-1H-pyrano[4,3-c]pyridin-8-yl)-1-methyl-1H-indazole-3-carbonitrile] |
| 38.9 | Cn1ncc2ccc(-c3cncc4c3C(C)(O)COC4)cc21 (single isomer, unassigned) [Compound 179, 4-Methyl-5-(1-methyl-1H-indazol-6-yl)-3,4-dihydro-1H-pyrano[3,4-c]pyridin-4-ol] |
| 281 | Cn1ncc2ccc(-c3cncc4c3C(C)(O)COC4)cc21 (single isomer, unassigned) [Compound 180, 4-Methyl-5-(1-methyl-1H-indazol-6-yl)-3,4-dihydro-1H-pyrano[3,4-c]pyridin-4-ol] |
| 150 | O=C1CCc2nc(-c3cncc4c3COCC4O)ccc21 (single isomer, unassigned) [Compound 181, 2-(4-Hydroxy-3,4-dihydro-1H-pyrano[4,3-c]pyridin-8-yl)-6,7-dihydro-[1]pyrindin-5-one] |

| IC50 [nM] | Compound |
| --- | --- |
| 496 | CC1(C)COc2ccc(-c3cncc4c3COCC4O)cc21 (single isomer, unassigned) [Compound 182, 8-(3,3-Dimethyl-2,3-dihydro-benzofuran-5-yl)-3,4-dihydro-1H-pyrano[4,3-c]pyridin-4-ol] |
| 52 | O=C1CCc2cc(-c3cncc4c3COCC4O)ccc21 (single isomer, unassigned) [Compound 183, 5-(4-Hydroxy-3,4-dihydro-1H-pyrano[4,3-c]pyridin-8-yl)-indan-1-one] |
| 18 | CN(C)C1COCc2c(-c3ccc4cnn(C)c4c3)cncc21 (single isomer, unassigned) [Compound 185, Dimethyl-[8-(1-methyl-1H-indazol-6-yl)-3,4-dihydro-1H-pyrano[4,3-c]pyridin-4-yl]-amine] |
| 67 | N#CC1CC=C(c2cncc3c2COCC3O)CC1 (single isomer, unassigned) [Compound 186, 4-(4-Hydroxy-3,4-dihydro-1H-pyrano[4,3-c]pyridin-8-yl)-cyclohex-3-enecarbonitrile] |
| 12.9 | Cn1ncc2c1C=C(c1cncc3c1COCC3O)CC2 (single isomer, unassigned) [Compound 187, 8-(1-Methyl-4,5-dihydro-1H-indazol-6-yl)-3,4-dihydro-1H-pyrano[4,3-c]pyridin-4-ol] |
| 21 | Cn1nnc2ccc(-c3cncc4c3COCC4O)cc21 (single isomer, unassigned) [Compound 188, 8-(3-Methyl-3H-benzotriazol-5-yl)-3,4-dihydro-1H-pyrano[4,3-c]pyridin-4-ol] |
| 67 | Cn1ncc2c1C=C(c1cncc3c1COCC3O)CC2 (single isomer, unassigned) [Compound 189, 8-(1-Methyl-4,5-dihydro-1H-indazol-6-yl)-3,4-dihydro-1H-pyrano[4,3-c]pyridin-4-ol] |
| 340 | Cn1ncc2c1CC(c1cncc3c1COCC3O)CC2 (single isomer, unassigned) [Compound 190, 8-(1-Methyl-4,5,6,7-tetrahydro-1H-indazol-6-yl)-3,4-dihydro-1H-pyrano[4,3-c]pyridin-4-ol] |
| 48 | Cn1ncc2c1CC(c1cncc3c1COCC3O)CC2 (single isomer, unassigned) [Compound 191, 8-(1-Methyl-4,5,6,7-tetrahydro-1H-indazol-6-yl)-3,4-dihydro-1H-pyrano[4,3-c]pyridin-4-ol] |
| 14 | N#CC1CC=C(c2cncc3c2COCC3O)CC1 (single isomer, unassigned) [Compound 192, 4-(4-Hydroxy-3,4-dihydro-1H-pyrano[4,3-c]pyridin-8-yl)-cyclohex-3-enecarbonitrile] |
| 38 | CCC(=O)NC1COCc2c(-c3cc4c(cnn4C)cc3F)cncc21 (single isomer, unassigned) [Compound 193, N-[8-(5-Fluoro-1-methyl-1H-indazol-6-yl)-3,4-dihydro-1H-pyrano[4,3-c]pyridin-4-yl]-propionamide] |
| 38 | CCC(=O)NC1COCc2c(-c3ccc4c(c3)COCC4(F)F)cncc21 (single isomer, unassigned) [Compound 194, N-[8-(4,4-Difluoro-isochroman-7-yl)-3,4-dihydro-1H-pyrano[4,3-c]pyridin-4-yl]-propionamide] |
| 140 | CCS(=O)(=O)NC1COCc2c(-c3cc4c(cnn4C)cc3F)cncc21 (single isomer, unassigned) [Compound 195, Ethanesulfonic acid [8-(5-fluoro-1-methyl-1H-indazol-6-yl)-3,4-dihydro-1H-pyrano[4,3-c]pyridin-4-yl]-amide] |
| 330 | CCS(=O)(=O)NC1COCc2c(-c3ccc4c(c3)COCC4(F)F)cncc21 (single isomer, unassigned) [Compound 196, Ethanesulfonic acid [8-(4,4-difluoro-isochroman-7-yl)-3,4-dihydro-1H-pyrano[4,3-c]pyridin-4-yl]-amide] |
| 18 | Cn1nnc2ccc(-c3cncc4c3COC3(CC3)C4O)cc21 (single isomer, unassigned) [Compound 197, 8-(3-methylbenzotriazol-5-yl)spiro[1,4-dihydropyrano[4,3-c]pyridine-3,1′-cyclopropane]-4-ol] |
| 19 | Cn1nnc2ccc(-c3cncc4c3COC3(CC3)C4O)cc21 (single isomer, unassigned) [Compound 198, 8-(3-methylbenzotriazol-5-yl)spiro[1,4-dihydropyrano[4,3-c]pyridine-3,1′-cyclopropane]-4-ol] |
| 22 | OC1COCc2c(-c3ccc4c(c3)COCC4(F)F)cncc21 (single isomer, unassigned) [Compound 199, 8-(4,4-Difluoro-isochroman-7-yl)-3,4-dihydro-1H-pyrano[4,3-c]pyridin-4-ol] |
| 279 | OC1COCc2c(-c3ccc4c(c3)COCC4(F)F)cncc21 (single isomer, unassigned) [Compound 200, 8-(4,4-Difluoro-isochroman-7-yl)-3,4-dihydro-1H-pyrano[4,3-c]pyridin-4-ol] |

Reference: patent publication US9890171B2, “Aldosterone synthase inhibitors” (Boehringer Ingelheim International GmbH, priority 2014, dated 2018)
